Tests used:
Format in all cases: cell-based
[1] = system: E. coli DH5α; experiment: Antibacterial activity: MIC and growth curve against E. coli DH5α in 96-well plate; details: minimal inhibitory concentration against E. coli DH5α; 96-well plate, 5×10^5 CFU/mL, 37° C., judged after 8 h
Outline: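 MIC taken as lowest protein level with no bacterial growth, tracked by A600 every 30 min during 37 °C, 175 rpm culture. Two-fold protein series 50-12.5 μg/mL final, triplicate wells, against 5×10^5 CFU/mL of LB-washed mid-log cells.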

[2] = system: E. coli BL21; experiment: MIC against Gram-negative bacteria: E. coli BL21; details: 5×10^5 CFU/mL
Outline: (§1)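 LB broth cultures at McFarland 0.5, spun down, resuspended, diluted to 5×10^5 CFU/mL final. Two-fold serial dilutions of purified human EGF domain proteins, triplicate. 37° C, 175 rpm shaking. Endpoint: no visible growth.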

[3] = system: Pseudomonas aeruginosa; experiment: MIC against Gram-negative bacteria: Pseudomonas aeruginosa; details: 5×10^5 CFU/mL
Outline: as §1

[4] = system: Klebsiella pneumonia; experiment: MIC against Gram-negative bacteria: Klebsiella pneumonia; details: 5×10^5 CFU/mL
Outline: as §1

[5] = system: Enterobacter cloacae; experiment: MIC against Gram-negative bacteria: Enterobacter cloacae; details: 5×10^5 CFU/mL
Outline: as §1

[6] = system: Aeromonas hydrophila; experiment: MIC against Gram-negative bacteria: Aeromonas hydrophila; details: 5×10^5 CFU/mL
Outline: as §1

[7] = system: Citrobacter diversus; experiment: MIC against Gram-negative bacteria: Citrobacter diversus; details: 5×10^5 CFU/mL
Outline: as §1

[8] = system: Moraxella catarrhalis; experiment: MIC against Gram-negative bacteria: Moraxella catarrhalis; details: 5×10^5 CFU/mL
Outline: as §1

[9] = system: Proteus mirabilis; experiment: MIC against Gram-negative bacteria: Proteus mirabilis; details: 5×10^5 CFU/mL
Outline: as §1

[10] = system: Proteus vulgaris; experiment: MIC against Gram-negative bacteria: Proteus vulgaris; details: 5×10^5 CFU/mL
Outline: as §1

[11] = system: Serratia marcescens; experiment: MIC against Gram-negative bacteria: Serratia marcescens; details: 5×10^5 CFU/mL
Outline: as §1

[12] = 10 h cultivation at 37° C., two-fold serial dilution
[13] = P. aeruginosa, 10 h cultivation at 37° C.
[14] = K. pneumonia, 10 h cultivation at 37° C.
[15] = E. cloacae, 10 h cultivation at 37° C.
[16] = A. hydrophila, 10 h cultivation at 37° C.
[17] = C. diversus, 10 h cultivation at 37° C.
[18] = M. catarrhalis, 10 h cultivation at 37° C.
[19] = P. mirabilis, 10 h cultivation at 37° C.
[20] = P. vulgaris, 10 h cultivation at 37° C.
[21] = S. marcescens, 10 h cultivation at 37° C.

Substance: PRT1108 (DLNECNSNPCQSNGECVELSSEKQYGRITGLPSSFSYHEASGYVCICQPGFTGIHCE; listed as Homo sapiens)
- MIC [1]: 50 µg/mL
- MIC E. coli BL21 [2, 12]: 12.5 µg/mL
- MIC P. aeruginosa [3, 12]: 12.5 µg/mL
- MIC K. pneumonia [4, 12]: 12.5 µg/mL
- MIC E. cloacae [5, 12]: 25 µg/mL
- MIC A. hydrophila [6, 12]: 25 µg/mL
- MIC C. diversus [7, 12]: 12.5 µg/mL
- MIC M. catarrhalis [8, 12]: 25 µg/mL
- MIC P. mirabilis [9, 12]: 12.5 µg/mL
- MIC P. vulgaris [10, 12]: 25 µg/mL
- MIC S. marcescens [11, 12]: 12.5 µg/mL

Substance: PRT219 (DIDECRTSSYLCQYQCVNEPGKFSCMCPQGYQVVRSRTCQ; listed as Homo sapiens)
- MIC [1]: 12.5 µg/mL
- MIC (μg/mL) E. coli BL21 ([2]; 10 h cultivation at 37° C.): 25 µg/mL
- MIC (μg/mL) P. aeruginosa [3, 13]: 50 µg/mL
- MIC (μg/mL) K. pneumonia [4, 14]: 12.5 µg/mL
- MIC (μg/mL) E. cloacae [5, 15]: 12.5 µg/mL
- MIC (μg/mL) A. hydrophila [6, 16]: 12.5 µg/mL
- MIC (μg/mL) C. diversus [7, 17]: 12.5 µg/mL
- MIC (μg/mL) M. catarrhalis [8, 18]: 12.5 µg/mL
- MIC (μg/mL) P. mirabilis [9, 19]: 12.5 µg/mL
- MIC (μg/mL) P. vulgaris [10, 20]: 25 µg/mL
- MIC (μg/mL) S. marcescens [11, 21]: 12.5 µg/mL

Substance: PRT790 (HGPQCEQRCPCQNGGVCHHVTGECSCPSGWMGTVCG; listed as Homo sapiens)
- MIC [1]: 25 µg/mL
- MIC (μg/mL) E. coli BL21 ([2]; 10 h cultivation at 37° C.): 50 µg/mL
- MIC (μg/mL) P. aeruginosa [3, 13]: 25 µg/mL
- MIC (μg/mL) K. pneumonia [4, 14]: 25 µg/mL
- MIC (μg/mL) E. cloacae [5, 15]: 12.5 µg/mL
- MIC (μg/mL) A. hydrophila [6, 16]: 25 µg/mL
- MIC (μg/mL) C. diversus [7, 17]: 50 µg/mL
- MIC (μg/mL) M. catarrhalis [8, 18]: 25 µg/mL
- MIC (μg/mL) P. mirabilis [9, 19]: 12.5 µg/mL
- MIC (μg/mL) P. vulgaris [10, 20]: 50 µg/mL
- MIC (μg/mL) S. marcescens [11, 21]: 12.5 µg/mL

Substance: PRT1110 (RREQCRPLPCVHGGSCVDLWTHFRCDCARPHRGPTCA; listed as Homo sapiens)
- MIC [1]: 25 µg/mL
- MIC E. coli BL21 [2, 12]: 50 µg/mL
- MIC P. aeruginosa [3, 12]: 25 µg/mL
- MIC K. pneumonia [4, 12]: 12.5 µg/mL
- MIC E. cloacae [5, 12]: 50 µg/mL
- MIC A. hydrophila [6, 12]: 12.5 µg/mL
- MIC C. diversus [7, 12]: 50 µg/mL
- MIC M. catarrhalis [8, 12]: 12.5 µg/mL
- MIC P. mirabilis [9, 12]: 25 µg/mL
- MIC P. vulgaris [10, 12]: 50 µg/mL
- MIC S. marcescens [11, 12]: 25 µg/mL

Substance: PRT643 (RVVICHLPCMNGGQCSSRDKCQCPPNFTGKLCQ; listed as Homo sapiens)
- MIC [1]: 12.5 µg/mL
- MIC E. coli BL21 ([2]; 96-well plate, 37° C., 10 h): 25 µg/mL
- MIC P. aeruginosa ([3]; 96-well plate, 37° C., 10 h): 50 µg/mL
- MIC K. pneumonia ([4]; 96-well plate, 37° C., 10 h): 25 µg/mL
- MIC E. cloacae ([5]; 96-well plate, 37° C., 10 h): 12.5 µg/mL
- MIC A. hydrophila ([6]; 96-well plate, 37° C., 10 h): 25 µg/mL
- MIC C. diversus ([7]; 96-well plate, 37° C., 10 h): 50 µg/mL
- MIC M. catarrhalis ([8]; 96-well plate, 37° C., 10 h): 25 µg/mL
- MIC P. mirabilis ([9]; 96-well plate, 37° C., 10 h): 12.5 µg/mL
- MIC P. vulgaris ([10]; 96-well plate, 37° C., 10 h): 25 µg/mL
- MIC S. marcescens ([11]; 96-well plate, 37° C., 10 h): 50 µg/mL

Substance: PRT591 (CACDPHNSLSPQCNQFTGQCPCREGFGGLMCSAAAIRQCPDRTYGDVATGCRA; listed as Homo sapiens)
- MIC [1]: 25 µg/mL
- MIC against E. coli BL21 ([2]; 96-well plate, 37° C., 10 h): 50 µg/mL
- MIC against P. aeruginosa ([3]; 96-well plate, 37° C., 10 h): 25 µg/mL
- MIC against K. pneumonia ([4]; 96-well plate, 37° C., 10 h): 12.5 µg/mL
- MIC against E. cloacae ([5]; 96-well plate, 37° C., 10 h): 25 µg/mL
- MIC against A. hydrophila ([6]; 96-well plate, 37° C., 10 h): 50 µg/mL
- MIC against C. diversus ([7]; 96-well plate, 37° C., 10 h): 12.5 µg/mL
- MIC against M. catarrhalis ([8]; 96-well plate, 37° C., 10 h): 50 µg/mL
- MIC against P. mirabilis ([9]; 96-well plate, 37° C., 10 h): 12.5 µg/mL
- MIC against P. vulgaris ([10]; 96-well plate, 37° C., 10 h): 50 µg/mL
- MIC against S. marcescens ([11]; 96-well plate, 37° C., 10 h): 12.5 µg/mL

Substance: PRT70 (VDDPCTSSPCPPNSRCHDAWEDYSCVCDKGYLGINC; listed as Homo sapiens)
- MIC [1]: 12.5 µg/mL
- MIC (μg/mL) E. coli BL21 ([2]; 96-well plate, 37° C., 10 h): 12.5 µg/mL
- MIC (μg/mL) P. aeruginosa ([3]; Pseudomonas aeruginosa, 96-well plate, 37° C., 10 h): 12.5 µg/mL
- MIC (μg/mL) K. pneumonia ([4]; Klebsiella pneumonia, 96-well plate, 37° C., 10 h): 25 µg/mL
- MIC (μg/mL) E. cloacae ([5]; Enterobacter cloacae, 96-well plate, 37° C., 10 h): 12.5 µg/mL
- MIC (μg/mL) A. hydrophila ([6]; Aeromonas hydrophila, 96-well plate, 37° C., 10 h): 25 µg/mL
- MIC (μg/mL) C. diversus ([7]; Citrobacter diversus, 96-well plate, 37° C., 10 h): 12.5 µg/mL
- MIC (μg/mL) M. catarrhalis ([8]; Moraxella catarrhalis, 96-well plate, 37° C., 10 h): 12.5 µg/mL
- MIC (μg/mL) P. mirabilis ([9]; Proteus mirabilis, 96-well plate, 37° C., 10 h): 50 µg/mL
- MIC (μg/mL) P. vulgaris ([10]; Proteus vulgaris, 96-well plate, 37° C., 10 h): 12.5 µg/mL
- MIC (μg/mL) S. marcescens ([11]; Serratia marcescens, 96-well plate, 37° C., 10 h): 25 µg/mL

— patent US9833497B2, “Human originated EGF domain proteins and use of the same” (CHENGDU SOURCEBIO LIMITED-LIABILITY COMPANY, priority 2013, dated 2017)
